Measurements taken from BindingDB's records for doi:10.1021/acs.jmedchem.1c00920 (Astrazeneca, 2021).

The compounds below were run against Tyrosine-protein kinase Mer (Homo sapiens) (UniProt Q12866) (assay: Inhibition of FLAG-tagged MER (unknown origin) transfected in Cos-7cells assessed as phosphorylation level incubated for 1 hr by ELISA).
Sequence of Tyrosine-protein kinase Mer (Homo sapiens) (Q12866 whole entry, looked up): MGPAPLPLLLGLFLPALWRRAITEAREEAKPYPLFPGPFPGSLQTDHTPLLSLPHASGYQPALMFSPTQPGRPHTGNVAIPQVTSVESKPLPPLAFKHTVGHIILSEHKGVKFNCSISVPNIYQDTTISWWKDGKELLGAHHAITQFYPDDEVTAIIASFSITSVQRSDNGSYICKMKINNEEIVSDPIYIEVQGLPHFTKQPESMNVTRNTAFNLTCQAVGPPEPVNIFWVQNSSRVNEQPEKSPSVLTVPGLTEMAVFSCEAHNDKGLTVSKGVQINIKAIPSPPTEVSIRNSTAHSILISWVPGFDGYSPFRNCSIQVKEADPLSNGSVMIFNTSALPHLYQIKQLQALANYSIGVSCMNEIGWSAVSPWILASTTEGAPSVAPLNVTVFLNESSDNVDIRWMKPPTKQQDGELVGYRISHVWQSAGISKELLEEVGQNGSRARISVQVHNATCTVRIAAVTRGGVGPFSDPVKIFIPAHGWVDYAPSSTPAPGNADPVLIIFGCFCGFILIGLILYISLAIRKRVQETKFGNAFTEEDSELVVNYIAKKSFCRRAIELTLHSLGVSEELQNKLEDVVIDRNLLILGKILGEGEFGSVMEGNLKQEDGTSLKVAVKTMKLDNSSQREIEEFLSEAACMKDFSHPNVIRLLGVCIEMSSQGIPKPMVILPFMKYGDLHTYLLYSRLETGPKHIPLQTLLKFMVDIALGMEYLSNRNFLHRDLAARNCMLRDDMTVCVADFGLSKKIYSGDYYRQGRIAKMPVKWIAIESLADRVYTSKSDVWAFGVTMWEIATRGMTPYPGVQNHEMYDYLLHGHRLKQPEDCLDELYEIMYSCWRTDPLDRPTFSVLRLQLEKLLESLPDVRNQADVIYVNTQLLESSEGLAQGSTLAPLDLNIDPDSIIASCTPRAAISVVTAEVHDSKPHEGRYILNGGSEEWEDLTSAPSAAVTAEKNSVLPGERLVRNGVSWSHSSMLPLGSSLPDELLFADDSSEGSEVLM

SMILES	IC50 [nM]
CN1CCN(Cc2ccc(-c3ccc(CO[C@H]4CCC[C@@H]4NC(=O)c4cc(-c5cnn(C)c5)cnc4N)cc3)cc2)CC1 [US10125118, Example 172]	7.9
Cc1nn(C)c(C)c1-c1ccc(-c2nnc(N(C)Cc3ccc4nccn4c3)o2)cc1	200
Cc1cc(-c2c(C#N)nn(C)c2C)ccc1-c1nnc(N(C)Cc2ccc3nccn3c2)o1	316
Cc1cc(-c2c(C)nc(C)n2C)ccc1-c1nnc(N(C)Cc2ccc3nccn3c2)o1	501
Cc1cc(-c2cnn(C)c2C)ccc1-c1nnc(N(C)Cc2ccc3nccn3c2)o1	79
Cc1nc(-c2c(C)nn(C)c2C)ccc1-c1nnc(N(C)Cc2ccc3nccn3c2)o1	1580
Cc1cc(-c2c(C)n[nH]c2C)ccc1-c1nnc(N(C)Cc2ccc3nccn3c2)o1	2510
Cc1cc(-c2c(C)nn(C)c2C)cnc1-c1nnc(N(C)Cc2ccc3nccn3c2)o1	794

More lines, now with the values ahead:

IC50 [nM]	SMILES
32	Cc1cc(-c2c(C)nn(C)c2C)ccc1-c1nnc(N(C)Cc2ccc3nccn3c2)o1
13	Cc1cc(-c2c(C)nn(C)c2C)ccc1-c1nnc(N(C)Cc2ccc3ncc(-c4cnn(C)c4)n3c2)o1
13	Cc1cc(-c2c(C)nn(C)c2C)cnc1-c1nnc(N(C)Cc2ccc3ncc(-c4ccc(CN(C)C)cn4)n3c2)o1
316	Cc1nn(C)c(C)c1-c1ccc(-c2nnc(N(C)Cc3ccc4nccn4c3)o2)c(F)c1
501	COc1cc(-c2c(C)nn(C)c2C)ccc1-c1nnc(N(C)Cc2ccc3nccn3c2)o1
251	Cc1cc(-c2c(C)nn(C)c2C)ccc1-c1nnc(N(C)Cc2ccc3ncc(C4CCN(C)CC4)n3c2)o1
16	Cc1cc(-c2c(C)nn(C)c2C)cnc1-c1nnc(N(C)Cc2ccc3ncc(-c4ccc(CN(C)C)cc4)n3c2)o1
32	Cc1cc(-c2c(C)nn(C)c2C)cnc1-c1nnc(N(C)Cc2ccc3ncc(-c4cccc(CN(C)C)c4)n3c2)o1
200	Cc1cc(-c2c(C)nn(C)c2C)cnc1-c1nnc(N(C)Cc2ccc3ncc(-c4cnn(CCN(C)C)c4)n3c2)o1
100	Cc1cc(-c2c(C)nn(C)c2C)cnc1-c1nnc(N(C)Cc2ccc3ncc(-c4ccc(CN(C)C)nc4)n3c2)o1
32	Cc1cc(-c2c(C)nn(C)c2C)ccc1-c1nnc(N(C)Cc2ccc3ncc(-c4ccccc4)n3c2)o1
20	Cc1cc(-c2c(C)nn(C)c2C)ccc1-c1nnc(N(C)Cc2ccc3ncc(-c4cnn(CCN(C)C)c4)n3c2)o1
32	Cc1cc(-c2c(C)nn(C)c2C)ccc1-c1nnc(N(C)Cc2ccc3ncc(C(=O)N(C)C)n3c2)o1
